Results on ten compounds are retold here after PMC7496275, “Pentathiepins: A Novel Class of Glutathione Peroxidase 1 Inhibitors that Induce Oxidative Stress, Loss of Mitochondrial Membrane Potential and Apoptosis in Human Cancer Cells” (Chemmedchem, 2020).

The target of assay [1] is T1, bovine erythrocyte GPx (Bos taurus, UniProt P00435).
T1 construct: 180 μL of a bovine erythrocyte GPx1 solution (0.125 U/mL); purchased Sigma Aldrich (Taufkirchen, Germany); host or cells: bovine erythrocytes
T1 sequence (P00435 1-205): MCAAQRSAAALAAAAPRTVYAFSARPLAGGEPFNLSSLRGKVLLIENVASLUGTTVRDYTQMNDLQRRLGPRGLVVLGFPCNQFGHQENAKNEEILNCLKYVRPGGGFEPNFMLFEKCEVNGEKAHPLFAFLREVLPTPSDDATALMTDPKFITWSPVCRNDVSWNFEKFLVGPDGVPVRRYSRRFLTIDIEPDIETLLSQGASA
Nature of the assay: GPx enzyme activity assay (TBHP/GSH, GR/NADPH coupled). The format is biochemical. As to conditions: 23 °C; n>3; 0.25 mM GSH; read-out: Enzyme inhibition IC50 (CI 95 %). The procedure:
The ability of pentathiepins to inhibit the bovine erythrocyte GPx activity was assayed for by an established enzyme method, which is based on the GPx‐dependent reduction of tert‐butyl hydroperoxide (TBHP) by GSH, leading to the formation of GSSG, which is coupled to the reduction of GSSG back to GSH by glutathione reductase (GR) and the oxidation of NADPH to NADP^+[10] (Figure 1). Inhibition potencies of the compounds were ranked by their IC50 values; that is, concentration of the inhibitor at the inflection point in the sigmoidal log dose‐inhibition curve (Figure 4A), and are summarized for the pentathiepins and mercaptosuccinic acid (MSA) in Table 1.
GPx enzyme activity assay: To evaluate if the various compounds could inhibit GPx1, an enzymatic assay monitoring the activity of the bovine erythrocyte GPx was used as described previously.33 Bovine erythrocyte GPx is highly homologous to the human GPx1 (homology of 87 %)34 but much more affordable. In this assay, GPx reduces tert‐butylhydroperoxide (TBHP) followed by oxidation of glutathione (GSH) to the disulfide (GSSG), which in turn is regenerated to GSH by glutathione reductase (GR) with the consumption of NADPH. To each well of a UV‐transparent 96‐well plate were added 180 μL of a bovine erythrocyte GPx1 solution (0.125 U/mL) and 30 μL of prospective inhibitor in different concentrations diluted in DMF and incubated under shaking for 15 min at room temperature. Then 30 μL of stock solutions of GSH (2.5 mM) and baker's yeast GR plus NADPH (2 U/mL; 2.0 mM) were added. All stock solutions were prepared in potassium phosphate buffer (50 mM, pH 7.4, EDTA 1.1 mM, Triton‐X 0.01 %). The reaction was started by addition of TBHP solution (5 mM), giving final concentrations of 0.075 U/mL bovine erythrocyte GPx, 0.2 U/mL GR, 0.25 mM GSH, 0.2 mM NADPH and prospective inhibitor concentrations between 0.2–100 μM. The reaction was followed by the rate of decreasing absorption of the NADPH at λ=340 nm, measured every 15 s for ca. 20 min. The GPx activity related to untreated control was imported into the GraphPad Prism 6.0 software and the IC50 values were calculated by estimating the inflection point of the sigmoidal log concentration‐activity curves.

For assay [2], the system named is SISO cells. As to the kind of experiment: Alkaline comet assay. It counts as cell-based, human. As to conditions: 15 min at 0 °C. The procedure: (§1) To assess the induction of DNA strand breaks by pentathiepin 4 the Comet Assay was used. The SISO and HAP‐1 cell lines were treated with either 1 % DMF (solvent control), 20 μM H2O2 (positive control) or 25 μM 4 for 15 min at 0 °C. The DNA in the comet head corresponds to still intact genomic DNA while the tail forms due to the damage of nuclear DNA (Figure 9B). […] For HAP‐1 cells a greater reduction of intact DNA from 86 % in control cells to 66 % in pentathiepin‐incubated cells was observed.
(§2) Alkaline comet assay to assess induction of DNA strand breaks: The method was adapted from Olive and Banath.40 The alkaline protocol allows for the detection of single and double strand breaks as well as alkali‐labile sites and is based on the different electrophoretic mobility of intact and damaged nuclear DNA. […] The induction of strand breaks creates free charged ends that drift out and form the characteristic comet tail. The percentage of DNA that is located in the comet head was selected as descriptor, which corresponds to the amount of still intact genomic DNA.
(§3) Briefly, SISO and HAP‐1 cells were harvested by trypsinization and a single cell suspension with 50 000 cells per mL PBS was prepared. Per condition 50 000 cells were incubated on ice (to impair DNA repair) with either the solvent control DMF (1.0 %), 20 μM H2O2 or 25 μM 4 for 15 min. Afterwards, 400 μL of the cell suspension were mixed with 1.2 mL 1 % low melting point agarose (Carl Roth, Germany) at 40 °C and evenly distributed on agarose‐precoated (GeneOn, Germany) glass slides (Thermo Fisher). After 3 min polymerization the slides were horizontally submerged in lysis buffer (1.2 M NaCl (Carl Roth, Germany), 0.1 % N‐Lauryl‐Sarcosinate (Merck), 0.1 M Na‐EDTA, 0.26 M NaOH) and placed at 4 °C overnight. Before electrophoresis at 0.6 V/cm for 25 min the slides were rinsed three times in rinse/electrophoresis buffer (0.002 M Na‐EDTA, 0.03 M NaOH). Afterwards, the slides were neutralized in distilled water and subsequently stained with 250 μL of a 10 μg/mL PI in water solution for 20 min. Finally, the slides were analyzed with a Leica DMi8 fluorescent microscope and LASX software (Leica, Germany) and comets were scored with CometScore 2.0 (Rex A. Hoover, www.rexhoover.com). At least 100 comets were scored per condition.

For assay [3], the system named is SISO human cervix cancer cell line. Nature of the assay: Crystal violet proliferation assay. It counts as cell-based. The conditions noted are these: 37 °C, 96 h, n>4, read-out: Inhibition of cell viability GI50 (CI 95 %). As to the method: GI50 values for 50 % growth inhibition were all in a low micro molar range (Table 1). […] The indole−pentathiepins gave lower GI50 values than the pyrrolo[1,2‐a]quinoxaline derivatives. […] There was also a trend showing that an electron rich substituent in position R^2 increased the antiproliferative effect in SISO cells.
Crystal violet proliferation assay: To measure cell growth inhibition, the crystal violet assay was carried out as previously described.37 Adherent cell lines were seeded out in a 96‐well plate (1000 cells per 200 μL culture medium) and allowed to attach for 24 h. Cells were exposed to nine serial dilutions of compound, added to the medium from 1000‐fold concentrated stock solutions in DMF. For the controls, cells were exposed to 0.1 % DMF alone. After addition of compounds, plates for the detection of the starting point of the proliferation at incubation time zero (t 0) were stopped with glutaraldehyde (see below), washed with Dulbecco's buffer (containing KCl 0.2 g/L, MgSO4 ⋅ 7 H2O 0.1 g/L, Na2HPO4 ⋅ >7 H2O 1.55 g/L, KH2HPO4 0.2 g/L and NaCl 8 g/L in water) and stored at 4 °C until the staining procedure. Treated cells were incubated for 96 h in the incubator, the medium was removed and replaced with 100 μL of 1 % glutaraldehyde in Dulbecco's buffer for 20 min. After washing twice with 150 μL of Dulbecco's buffer, the buffer was removed and replaced with 100 μL of a 0.02 % crystal violet solution dissolved in water for 30 min and subsequently washed in tap water for 15 min. Water was removed and replaced with 100 μL of ethanol (70 % in water) followed by shaking on a 96‐well shaker (MS3 digital, IKA‐Werke, Germany) for 2 h. Optical density was measured with a SpectraMax Plus 383 microtiter plate reader at λ=570 nm (Molecular Devices, USA). The optical density of t 0 plates at the time of treatment were subtracted from optical densities of plates with treated cells after 96 h (T), and the growth inhibition relative to untreated, control cells (C) as described.22 Growth inhibition concentrations at 50 % (GI50) were calculated by determining the inflection point of the sigmoidal log dose‐growth inhibition (%T/C) curves with the GraphPad Prism 6.0 software.

Assay [4] relates to SISO cells. As to the kind of experiment: Fluorescence microscopy for lipid peroxidation (BODIPY 581/591). It counts as cell-based, human. The conditions noted are these: 100 μM positive control, 24 h. As to the method: In another set of experiments, LPO was visualized by fluorescence microscopy with a dye for lipid peroxides, BODIPY 581/591. […] Together, our results point to apoptosis and not ferroptosis as the mechanism of cell death induced by 4.
Fluorescence microscopy for the detection of lipid peroxidation: SISO cells (250 000 cells) were seeded out in 6‐well plates with an inserted coverslip. Cells were allow to attach for 24 h and then exposed to 25 μM 4 or 100 μM tert‐butyl‐hydroperoxide as a positive control. After 24 h coverslips were washed with PBS and stained with 1 μM BODIPY 581/591 in culture medium for 30 min. Cells on the coverslips were then mounted and examined with a Leica DMi8 fluorescence microscope at λ ex/em=460–500/512–542 nm for the oxidized BODIPY 581/591 and λ ex/em=540–581/592–668 for the reduced form.

For assay [5], the system named is HAP-1 cells. Nature of the assay: Alkaline comet assay. As to conditions: 20 μM positive control, 15 min at 0 °C. It counts as cell-based, human. As to the method:
as §1, §2, §3

In assay [6] the target is T2, bovine GPx1 (Bos taurus, UniProt P00435).
T2 construct: 180 μL of a bovine erythrocyte GPx1 solution (0.125 U/mL); purchased Sigma Aldrich (Taufkirchen, Germany); host or cells: bovine erythrocytes
T2 sequence (P00435 1-205): T1 sequence (P00435 1-205)
As to the kind of experiment: Jump-dilution experiments for reversibility of GPx1 inhibition. It counts as biochemical. The conditions noted are these: 30 min pre-incubation at 23 °C, 100-fold jump-dilution. The procedure:
No difference in the inhibitory activity of 4 after jump‐dilution (Figure 4B left, a) was observed compared to expected inhibition at 0.25 μM (Figure 4B left, 0.25 μM), evidence that GPx1 inhibition is reversible. […] This is consistent with findings that MSA can act as an irreversible inhibitor of GPx1.11 In further jump‐dilution experiments, we pre‐incubated both inhibitors with the assay concentrations of either GSH and TBHP (a, d) or GSH only (b, e), with (a–c) and without (d–f) GPx1 for 30 min.
The jump‐dilution experiments were carried out in a 96‐well plates at room temperature. To each well was added 75 μL of a 20 IU mL^−1 GPx stock‐solution followed by the addition of 3 μL of a 2.5 mM solution of 4 in DMF and 30 μL of a 2.5 mM solution of GSH in buffer or 30 μL of a 2.5 mM solution of GSH in buffer and 30 μL of a 5 mM solution of TBHP in water and 300 μL buffer. The plates were shaken for 30 min in the dark, then each well was diluted 100 fold into a second plate prepared for the GPx‐assay. The enzyme activity was immediately measured as described above.

The subject of assay [7] is human GPx. As to the kind of experiment: GPx activity assay with human cancer cell lysates (SISO). The format is biochemical. As to conditions: inhibitor at its IC50 for bovine GPx, 0.5 mM GSH. The procedure: To investigate whether the pentathiepins have an inhibitory effect on human GPx, cell lysates of the human cervix cancer cell line SISO, which expresses high levels of GPx1 (see below), were incubated with either 4 or MSA in concentrations of the IC50 value for the inhibitory effect on bovine GPx1.
To measure the inhibition of human GPx activity, the enzyme assay was adapted to use human cancer cell lysates in place of the bovine enzyme. A quantity of 100 μg cellular protein (determined according to the Bradford method) per well was used. Due to the large consumption of cell lysates, just the inhibitory effect on GPx at one concentration of pentathiepin was determined in primary screening. The concentration of GSH was raised to a concentration of 0.5 mM to increase the velocity of the reaction, all other conditions were unchanged. The rates of NADPH oxidation were normalized to the solvent control. […] We used 100 μg protein of lysates and added GSH up to final concentrations between 0.375–3 mM. The rates of the GPx activity were calculated by nonlinear regression and the fitted with the GraphPad Prism 6.0 software: “Enzyme kinetics – Substrate vs. Velocity (Michaelis‐Menten)”.

Read-outs that look alike come from different tables or passages of the source.

Take `CCOc1c2c(c3c(C(F)(F)F)nc4cc(C)ccc4n13)SSSSS2` [Compound 3, 12‐Ethoxy‐3‐methyl‐6‐(trifluoromethyl)‐[1,2,3,4,5]pentathiepino[6′,7′ : 3,4]pyrrolo[1,2‐a]quinoxaline]: the IC50 in assay [1] stood at 470 nM.
Take `CCOc1c2c(c3c(C(F)(F)F)nc4cc(C)c(C)cc4n13)SSSSS2` [Compound 5, 12‐Ethoxy‐2,3‐dimethyl‐6‐(trifluoromethyl)‐[1,2,3,4,5]pentathiepino[6′,7′ : 3,4]pyrrolo[1,2‐a]quinoxaline]: the IC50 in assay [1] came to 1860 nM. In assay [2] (25 μM), the “percentage of undamaged (intact) DNA in comet head” value came out at 80%.
With `CCn1c2c(c3cc(Cl)ccc31)SSSSS2` [Compound 7, 9‐Chloro‐6‐ethyl‐6H‐[1,2,3,4,5]pentathiepino[6,7‐b]indole], the IC50 in assay [1] was found to be 400 nM. Besides, the GI50 in assay [3] (Homo sapiens) is 1500 nM.
Turning to `CC(C)(C)OO` [tBuOOH, reference compound], the “lipid peroxidation (LPO)” value in assay [4] is “showed LPO”.
As to `c1ccc(Cn2c3c(c4ccccc42)SSSSS3)cc1` [Compound 8, 6‐Benzyl‐6H‐[1,2,3,4,5]pentathiepino[6,7‐b]indole], the IC50 in assay [1] was 830 nM. In assay [3] (Homo sapiens), the GI50 is 1400 nM.
As to `Cn1c2c(c3ccccc31)SSSSS2` [Compound 6, 6‐Methyl‐6H‐[1,2,3,4,5]pentathiepino[6,7‐b]indole], the half-maximal inhibitory concentration (IC50) in assay [1] was 950 nM. Also, in assay [3] (Homo sapiens), the GI50 was 3500 nM.
For the compound `CCOc1c2c(c3cnc4cc(C)ccc4n13)SSSSS2` [Compound 2, 12‐Ethoxy‐3‐methyl‐[1,2,3,4,5]pentathiepino[6′,7′ : 3,4]pyrrolo[1,2‐a]quinoxaline], in assay [1], the IC50 was 520 nM.
In the case of `OO` [Compound H2O2, hydrogen peroxide, reference compound], the “intact DNA in comet head” value in assay [5] and in assay [2] (20 μM positive control) was “significant decreases of intact DNA” in each case.
For the compound `O=C(O)CC(S)C(=O)O` (stereo not drawn) [MSA, mercaptosuccinic acid, reference compound], in assay [1], the half-maximal inhibitory concentration (IC50) was found to be 5860 nM. Also, the “reversibility of GPx1 inhibition” value in assay [6] was “some irreversible inhibition had occurred”. Also, the “inhibition of GPx activity” value in assay [7] is recorded as 60%. The GI50 in assay [3] is 57100 nM.
Regarding `CCOc1c2c(c3cnc4ccccc4n13)SSSSS2` [Compound 1], the IC50 in assay [1] amounted to 1760 nM.

What is called IC50 is the point on the concentration scale where inhibition reaches its midpoint. For orientation: GI50 means the concentration that inhibits growth by half.
